In paper PMC4824752 (Structure (London, England : 1993), 2015):

Tests used:
[1] = tested on: GLIC aromatic-to-Ala mutants at the M4-M1/M3 interface; settings: Fig. S4
[2] = tested on: ELIC aliphatic-to-aromatic mutants at the M4-M1/M3 interface; settings: Fig. S4
ELIC L308W = ELIC L308W (Dickeya chrysanthemi, UniProt P0C7B7, L308W); assay: Two-electrode voltage clamp dose response to cysteamine, ELIC L308W mutant; assay type: cell-based
ELIC I319F/V260Y = ELIC I319F/V260Y (Dickeya chrysanthemi, UniProt P0C7B7, I319F/V260Y); assay type: cell-based; settings: read-out: EC50, concentration of cysteamine to elicit half maximal channel gating; ELIC I319F/V260Y double mutant, oocytes
wild type ELIC = wild type ELIC (Dickeya chrysanthemi, UniProt P0C7B7); assay type: cell-based; settings: read-out: EC50, concentration of cysteamine to elicit half maximal channel gating, oocytes, whole cell currents
[3] = tested on: ELIC with the entire aromatic network of GLIC; assay type: cell-based; settings: read-out: EC50, concentration of cysteamine to elicit half maximal channel gating, oocytes
ELIC G318F/V260Y = ELIC G318F/V260Y (Dickeya chrysanthemi, UniProt P0C7B7, G318F/V260Y); assay type: cell-based; settings: read-out: EC50, concentration of cysteamine to elicit half maximal channel gating; ELIC G318F/V260Y double mutant, oocytes
[4] = tested on: human muscle-type nAChR C418W; assay type: cell-based; settings: C418W relative to wild type

SMILES: CC(C)c1cccc(C(C)C)c1O [propofol, 2,6 diisopropylphenol]
- effect of aromatic-to-Ala substitutions on propofol inhibition [1]: None of the aromatic-to-Ala substitutions at the M4-M1/M3 interface of GLIC or the aliphatic-to-aromatic substitutions at the same interface in ELIC, however, had a major effect on propofol inhibition
- effect of aliphatic-to-aromatic substitutions on propofol inhibition [2]: None of the aromatic-to-Ala substitutions at the M4-M1/M3 interface of GLIC or the aliphatic-to-aromatic substitutions at the same interface in ELIC, however, had a major effect on propofol inhibition

SMILES: NCCS [cysteamine]
- magnitude of the L308W gain of function relative to the wild type ELIC (ELIC L308W; L308W relative to wild type ELIC): ~5 fold
- EC50 (ELIC L308W; read-out: EC50, concentration of cysteamine to elicit half maximal channel gating, ELIC L308W, oocytes): 290 ± 50 µM
- EC50 (ELIC I319F/V260Y): 130 µM
- EC50 (wild type ELIC): 940 ± 160 µM
- EC50 [3]: 150 ± 40 µM
- EC50 (ELIC G318F/V260Y): 130 µM

SMILES: CC(=O)OCC[N+](C)(C)C [acetylcholine]
- potentiation of nAChR channel function by C418W (EC50 wild type vs C418W) [4]: roughly 25 fold
